Results: patent publication US8664391B2, “Amide compounds as boosters of antivirals” (Janssen R&D Ireland Ltd, priority 2008, dated 2014)
Read-outs that look alike come from different tables or passages of the source.

How the values were obtained:
CYP2C9 = CYP2C9 (Homo sapiens, UniProt P11712); test: CYP450 inhibition, fluorescent substrate assay, CYP2C9; type: biochemical; conditions: pH 7.4
Protocol: (§1) Assay 4: CYP450 Inhibition […] This fluorescent molecule was measured using a fluorescent plate reader (Victor2 (Wallac) or Fluoroskan (Labsystems)). Compounds inhibiting the enzymatic reaction will result in a decrease of fluorescent signal. CYP P450 enzymes were prepared in house or commercially bought and stored at −80° C. [table] The assay was performed in black 96 well Costar plates. Test compounds were added to a CYP P450 enzyme solution in the presence of an NADPH generating system. After 5 min of preincubation at 37° C., the freshly prepared, phosphate buffered (pH 7.4) substrate solution was added. Known CYP P450 inhibitors were used as positive controls, negative controls were run without CYP P450 enzyme. For final reaction mixture concentrations, see Table 6. […] Then, the reaction was stopped by the addition of 200 μl acetonitrile, and the fluorescent signal was detected. [table] […] Inhibition of TMC114 Metabolisation

CYP2D6 = target: T1, CYP2D6 (Homo sapiens, UniProt P10635); test: CYP450 inhibition, fluorescent substrate assay, CYP2D6; type: biochemical; conditions: E. coli expressed CYP2D6, pH 7.4, probe AMMC (3 μM), 10 μM test compound, substrate AMMC 3 μM, read-out: 2D6-AMMC % inh.
T1 construct: host or cells: E. coli
Protocol: as §1

CYP1A2 = target: T2, CYP1A2 (Homo sapiens, UniProt P05177); test: CYP450 inhibition, fluorescent substrate assay, CYP1A2; type: biochemical; conditions: E. coli expressed CYP1A2, pH 7.4, probe CEC (5 μM), 10 μM test compound, substrate CEC 5 μM, read-out: 1A2-CEC % inh.
T2 construct: host or cells: E. coli
T2 sequence (P05177 1-516): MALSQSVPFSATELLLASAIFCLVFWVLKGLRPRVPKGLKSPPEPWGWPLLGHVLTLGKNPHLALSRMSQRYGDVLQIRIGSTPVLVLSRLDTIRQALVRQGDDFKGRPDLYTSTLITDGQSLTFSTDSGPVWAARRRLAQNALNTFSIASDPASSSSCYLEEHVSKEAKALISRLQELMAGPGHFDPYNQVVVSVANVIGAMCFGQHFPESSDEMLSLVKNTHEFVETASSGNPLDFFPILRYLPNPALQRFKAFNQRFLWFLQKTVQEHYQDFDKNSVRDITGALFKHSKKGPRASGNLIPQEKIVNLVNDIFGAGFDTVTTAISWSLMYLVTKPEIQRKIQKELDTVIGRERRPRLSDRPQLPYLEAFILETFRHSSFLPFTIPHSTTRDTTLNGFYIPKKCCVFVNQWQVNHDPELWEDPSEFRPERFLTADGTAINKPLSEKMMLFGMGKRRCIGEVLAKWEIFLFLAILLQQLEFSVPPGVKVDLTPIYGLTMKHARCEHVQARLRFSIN
Protocol: as §1

[1] = Cytotoxicity in mock-infected MT4 CMV-EGFP cells; type: cell-based; conditions: human, pCC50 = -log10(CC50), read-out: Toxicity MT4 pCC50 (converted)
Source text: (§2) Assay 1 &2: Antiviral Activity/Toxicity
Analogously, MT4 cells are engineered with GFP and the constitutional cytomegalovirus (CMV) promotor. This cell line is designated MT4 CMV-EGFP, and can be used for the in vitro evaluation of cytotoxicity of investigational compounds. In this cell line, GFP levels are comparably to those of infected MT4 LTR-EGFP cells. Cytotoxic investigational compounds reduce GFP levels of mock-infected MT4 CMV-EGFP cells.
Effective concentration values such as 50% effective concentration (EC50) can be determined and are usually expressed in μM. An EC50 value is defined as the concentration of test compound that reduces the fluorescence of HIV-infected cells by 50%. The 50% cytotoxic concentration (CC50 in μM) is defined as the concentration of test compound that reduces fluorescence of the mock-infected cells by 50%. The ratio of CC50 to EC50 is defined as the selectivity index (SI) and is an indication of the selectivity of the anti-HIV activity of the inhibitor. The ultimate monitoring of HIV-1 infection and cytotoxicity is done using a scanning microscope. Image analysis allows very sensitive detection of viral infection. Measurements are done before cell necrosis, which usually takes place about five days after infection, in particular measurements are performed three days after infection.
Table 2 lists pEC50 values against the wild-type HIV-1 IIIB strain as well as pCC50 values for a selected number of compounds of the invention. A pEC50 value corresponds to −log10(EC50). A pCC50 value corresponds to −log10(CC50).

[2] = tested on: wild-type HIV-1 IIIB strain; test: Antiviral activity in MT4 LTR-EGFP cellular assay; type: cell-based; conditions: Human immunodeficiency virus 1, 72 h; wild-type HIV-1 IIIB, MT4 LTR-EGFP cells, three days after infection; pEC50 = -log10(EC50); read-out: Antiviral Activity IIIB pEC50 (converted)
Protocol: as §2
The compounds of the present invention were tested for antiviral activity in a cellular assay, which was performed according to the following procedure.
The human T-cell line MT4 is engineered with Green Fluorescent Protein (GFP) and an HIV-specific promoter, HIV-1 long terminal repeat (LTR). This cell line is designated MT4 LTR-EGFP, and can be used for the in vitro evaluation of anti-HIV activity of investigational compounds. In HIV-1 infected cells, the Tat protein is produced which upregulates the LTR promotor and finally leads to stimulation of the GFP reporter production, allowing measuring ongoing HIV-infection fluorometrically.
The ratio of CC50 to EC50 is defined as the selectivity index (SI) and is an indication of the selectivity of the anti-HIV activity of the inhibitor. The ultimate monitoring of HIV-1 infection and cytotoxicity is done using a scanning microscope. Image analysis allows very sensitive detection of viral infection. Measurements are done before cell necrosis, which usually takes place about five days after infection, in particular measurements are performed three days after infection.
A pEC50 value corresponds to −log10(EC50). A pCC50 value corresponds to −log10(CC50).

CYP3A4 = target: T3, CYP3A4 (Homo sapiens, UniProt P08684); test: CYP450 inhibition, fluorescent substrate assay, CYP3A4; type: biochemical; conditions: 10 μM test compound; for inhibition at 10 min, 10 μM: E. coli expressed CYP3A4, pH 7.4, probe DBF (1 μM), substrate DBF 1 μM, read-out: 3A4-DBF % inh.
T3 construct: host or cells: E. coli
Protocol: as §1

CYP2C19 = target: T4, CYP2C19 (Homo sapiens, UniProt P33261); test: CYP450 inhibition, fluorescent substrate assay, CYP2C19; type: biochemical; conditions: E. coli expressed CYP2C19, pH 7.4, probe CEC (25 μM), 10 μM test compound, substrate CEC 25 μM, read-out: 2C19-CEC % inh.
T4 construct: host or cells: E. coli
Protocol: as §1

in vitro = in vitro ADME, human; conditions: human, pH 7.4
Source text: Assay 3: Metabolic Stability of Test Compounds (HLM15′)
Sub-cellular tissue preparations are made according to Gorrod et al. (Xenobiotica, 5, pp. 453-462 (1975)) by centrifugal separation after mechanical homogenization of tissue. Human liver tissue is rinsed in ice-cold 0.1 M Tris-HCl (pH 7.4) buffer to wash excess blood. Tissue is then blotted dry, weighed and chopped coarsely using surgical scissors. The tissue pieces are homogenized in 3 volumes of ice-cold 0.1 M phosphate buffer (pH 7.4) using either a Potter-S (Braun, Italy) equipped with a Teflon pestle or a Sorvall Omni-Mix homogenizer, for 7×10 sec. In both cases, the vessel is kept in/on ice during the homogenization process. Tissue homogenates are centrifuged at 9000×g for 20 min at 4° C. using a Sorvall centrifuge or Beckman Ultracentrifuge. The resulting supernatant can be stored at −80° C. and is designated ‘S9’. The S9 fraction is centrifuged at 100,000×g for 60 min at 4° C. using a Beckman ultracentrifuge. The resulting supernatant is carefully aspirated, aliquoted and designated ‘cytosol’. The pellet is re-suspended in 0.1 M phosphate buffer (pH 7.4) in a final volume of 1 ml per 0.5 g original tissue weight and designated ‘microsomes’. All sub-cellular fractions are aliquoted, immediately frozen in liquid nitrogen and stored at −80° C. until use.
Heat-inactivated (10 min at 95° C.) ‘S9’ or microsomes were used for blank experiments. Reaction mixtures were incubated at 37° C. for 5 min, after which the reaction was started by the addition of 0.8 mM β-NADP. The reaction was incubated for 0 or 15 min. Next, the reaction was stopped by addition of 2 volumes of DMSO (or acetonitrile). Samples were centrifuged (10 min, 900×g) and analyzed by LC-MS.

[3] = E. coli expressed CYP3A4, pH 7.4, probe BFC (150 μM), substrate BFC 150 μM, read-out: 3A4-BFC % inh.
[4] = E. coli expressed CYP3A4, pH 7.4, probe BQ (60 μM), substrate BQ 60 μM, read-out: 3A4-BQ % inh.

Sequence of CYP2C9 (P11712 whole entry): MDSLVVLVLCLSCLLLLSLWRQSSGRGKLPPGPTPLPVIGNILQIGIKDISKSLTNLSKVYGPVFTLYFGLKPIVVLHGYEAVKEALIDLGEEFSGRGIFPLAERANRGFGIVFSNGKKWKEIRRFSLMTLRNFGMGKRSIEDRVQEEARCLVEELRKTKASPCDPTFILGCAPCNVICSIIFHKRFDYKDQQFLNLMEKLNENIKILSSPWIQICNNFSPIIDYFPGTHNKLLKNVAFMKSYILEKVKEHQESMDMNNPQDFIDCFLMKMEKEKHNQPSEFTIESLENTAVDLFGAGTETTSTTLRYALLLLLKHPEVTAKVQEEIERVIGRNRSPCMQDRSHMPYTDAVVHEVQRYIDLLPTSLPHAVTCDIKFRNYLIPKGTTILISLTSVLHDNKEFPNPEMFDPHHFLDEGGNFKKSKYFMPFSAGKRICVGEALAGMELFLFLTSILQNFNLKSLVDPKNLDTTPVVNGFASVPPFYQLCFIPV
T4 sequence (P33261 whole entry): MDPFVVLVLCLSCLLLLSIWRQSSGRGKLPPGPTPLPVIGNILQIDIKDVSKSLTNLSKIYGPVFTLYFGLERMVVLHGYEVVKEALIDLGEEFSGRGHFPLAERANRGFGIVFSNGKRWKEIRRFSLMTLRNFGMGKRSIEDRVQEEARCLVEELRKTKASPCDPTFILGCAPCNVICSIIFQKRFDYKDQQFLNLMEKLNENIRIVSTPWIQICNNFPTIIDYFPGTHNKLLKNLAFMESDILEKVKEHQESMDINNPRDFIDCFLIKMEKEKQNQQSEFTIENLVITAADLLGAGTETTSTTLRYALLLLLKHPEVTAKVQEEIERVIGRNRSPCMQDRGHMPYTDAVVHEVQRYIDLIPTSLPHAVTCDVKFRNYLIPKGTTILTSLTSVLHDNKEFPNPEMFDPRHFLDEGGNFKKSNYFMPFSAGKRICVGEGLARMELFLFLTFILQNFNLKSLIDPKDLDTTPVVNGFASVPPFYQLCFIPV
T3 sequence (P08684 whole entry): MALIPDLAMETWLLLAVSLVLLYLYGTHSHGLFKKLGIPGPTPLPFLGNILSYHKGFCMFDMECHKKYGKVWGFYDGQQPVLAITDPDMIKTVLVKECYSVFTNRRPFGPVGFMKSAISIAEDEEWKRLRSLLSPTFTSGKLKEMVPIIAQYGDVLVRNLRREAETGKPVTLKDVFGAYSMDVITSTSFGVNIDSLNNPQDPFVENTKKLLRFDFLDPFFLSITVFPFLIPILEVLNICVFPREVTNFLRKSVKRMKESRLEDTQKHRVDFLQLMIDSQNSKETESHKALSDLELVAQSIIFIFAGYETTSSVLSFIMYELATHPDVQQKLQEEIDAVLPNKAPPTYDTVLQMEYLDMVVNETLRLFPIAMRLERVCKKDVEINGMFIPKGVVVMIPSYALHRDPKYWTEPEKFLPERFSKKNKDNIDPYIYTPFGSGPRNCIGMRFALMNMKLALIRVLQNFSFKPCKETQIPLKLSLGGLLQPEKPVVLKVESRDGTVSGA
T1 sequence (P10635 whole entry): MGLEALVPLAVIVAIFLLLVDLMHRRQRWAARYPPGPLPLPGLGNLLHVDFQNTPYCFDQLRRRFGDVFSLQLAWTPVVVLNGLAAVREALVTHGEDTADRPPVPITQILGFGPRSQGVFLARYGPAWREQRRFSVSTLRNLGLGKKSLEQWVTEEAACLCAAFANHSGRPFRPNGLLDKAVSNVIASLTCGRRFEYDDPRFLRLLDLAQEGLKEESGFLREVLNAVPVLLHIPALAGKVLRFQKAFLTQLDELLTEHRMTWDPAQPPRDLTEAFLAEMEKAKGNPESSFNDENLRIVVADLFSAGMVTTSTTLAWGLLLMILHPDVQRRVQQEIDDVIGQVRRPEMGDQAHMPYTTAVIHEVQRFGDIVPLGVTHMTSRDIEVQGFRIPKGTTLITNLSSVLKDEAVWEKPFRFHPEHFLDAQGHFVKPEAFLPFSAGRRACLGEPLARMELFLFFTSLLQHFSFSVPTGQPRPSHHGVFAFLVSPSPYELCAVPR

Structure (SMILES) | inhibition at 30 min, 10 μM (CYP2C9) [%] | inhibition at 45 min, 10 μM (CYP2D6) [%] | inhibition at 15 min, 10 μM (CYP1A2) [%] | CC50 at 3 days [1] [µM] | EC50 [2] [µM] | inhibition at 30 min, 10 μM (CYP3A4; [3]) [%] | inhibition at 30 min, 10 μM (CYP3A4; [4]) [%] | inhibition at 10 min, 10 μM (CYP3A4) [%] | inhibition at 30 min, 10 μM (CYP2C19) [%] | recovery at 15 min, 5 μM (in vitro) [%]
CC(C)CN(C[C@@H](O)[C@H](Cc1ccccc1)NC(=O)OCc1cncs1)C(=O)c1ccncc1 [Compound C8] | 95 | 39 | 4 | > 100 | > 100 | 91 | 79 | 91 | 76 | 81
CC(C)CN(C[C@@H](O)[C@H](Cc1ccccc1)NC(=O)OCc1cncs1)C(=O)c1ccccn1 [Compound C9] | 85 | 66 | 4 | > 100 | > 100 | 91 | 78 | 89 | 64 | 55
Cc1cccc(C(=O)N(CC(C)C)C[C@@H](O)[C@H](Cc2ccccc2)NC(=O)OCc2cncs2)c1 [Compound C10] | 96 | 62 | 33 | > 100 | > 100 | 95 | 79 | 93 | 92 | 47
CC(C)CN(C[C@@H](O)[C@H](Cc1ccccc1)NC(=O)OCc1cncs1)C(=O)c1cccc(C(F)(F)F)c1 [Compound C11] | 97 | 86 | 45 | 34.7 | 38 | 94 | 78 | 99 | 100 | 52
CC(C)CN(C[C@@H](O)[C@H](Cc1ccccc1)NC(=O)OCc1cncs1)C(=O)c1cnc2ccccc2n1 [Compound C12, 1S-2R-{1-Benzyl-2-hydroxy-3-[isobutyl-(quinoxaline-2-carbonyl)-amino]-propyl}-carbamic acid thiazol-5-ylmethyl ester] | 92 | 0 | 21 | 61.7 | 60.3 | 70 | 79 | 93 | 81 | 67
CC(C)CN(C[C@@H](O)[C@H](Cc1ccccc1)NC(=O)OCc1cncs1)C(=O)c1cccnc1 [Compound C13] | 95 | 64 | 8 | > 100 | > 100 | 81 | 84 | 94 | 67 | 69
CC(C)CN(C[C@@H](O)[C@H](Cc1ccccc1)NC(=O)OCc1cncs1)C(=O)c1ccc[nH]1 [Compound C14] | 98 | 67 | 56 | 89.1 | 79.4 | 84 | 80 | 91 | 87 | 24
CC(C)CN(C[C@@H](O)[C@H](Cc1ccccc1)NC(=O)OCc1cncs1)C(=O)c1cccc(Cl)c1 [Compound C15] | 97 | 41 | 51 | 42.7 | 50.1 | 75 | 80 | 92 | 92 | 57
CC(C)CN(C[C@@H](O)[C@H](Cc1ccccc1)NC(=O)OCc1cncs1)C(=O)c1ccc(Cl)cc1 [Compound C16] | 97 | 43 | 50 | 40.7 | 38.9 | 71 | 82 | 92 | 90 | 59
